Reference: PubChem BioAssay (NCI)
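Where inhibition never reached the appropriate level, the endpoint shown equals the highest concentration tested. Otherwise, values were interpolated linearly from a five-concentration, 48-hour dose response in 96-well plates. TGI: concentration producing complete growth inhibition.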

How the values were obtained:
Test in all cases: NCI-60 cell line screen, 48 h
786-0 renal = system: 786-0 renal
ACHN renal = system: ACHN renal
CAKI-1 renal = system: CAKI-1 renal
HCT-15 colon = system: HCT-15 colon
IGROV1 ovarian = system: IGROV1 ovarian
LOX IMVI melanoma = system: LOX IMVI melanoma
MDA-MB-231 breast = system: MDA-MB-231 breast
MOLT-4 leukemia = system: MOLT-4 leukemia
PC-3 prostate = system: PC-3 prostate
SK-MEL-2 melanoma = system: SK-MEL-2 melanoma
UACC-62 melanoma = system: UACC-62 melanoma
UO-31 renal = system: UO-31 renal

Row | SMILES | TGI (786-0 renal) [µM] | TGI (ACHN renal) [µM] | TGI (CAKI-1 renal) [µM] | TGI (HCT-15 colon) [µM] | TGI (IGROV1 ovarian) [µM] | TGI (LOX IMVI melanoma) [µM] | TGI (MDA-MB-231 breast) [µM] | TGI (MOLT-4 leukemia) [µM] | TGI (PC-3 prostate) [µM] | TGI (SK-MEL-2 melanoma) [µM] | TGI (UACC-62 melanoma) [µM] | TGI (UO-31 renal) [µM]
1 | O=C(O)c1ccc(NS(=O)(=O)Cc2ccccc2)cc1 | > 100 | > 100 | > 100 | > 100 | > 100 | > 100 | > 100 | > 100 | > 100 | > 100 | > 100 | > 100
2 | O=C1/C(=C/c2ccc(Br)s2)NC(=S)N1CN1CCOCC1 | > 100 | > 100 | 66.5 | > 100 | > 100 | 61.4 | > 100 | > 100 | > 100 | > 100 | 48.6 | > 100
3 | Cc1cc(C)c2c(n1)S(=O)(=O)N(CCCN1CCN(c3cccc(C(F)(F)F)c3)CC1)/C(=C(\O)c1ccc(Cl)cc1)C2=O | 15.4 | 13.8 | 8.77 | 13.9 | 16.2 | 17.6 | 18.7 | 4 | 13.6 | 16.8 | 18.3 | 10.8
4 | CCOC(=O)C1C(=O)CC(O)(c2ccccc2)C(C(=O)OCC)C1c1ccc(OC)cc1 (stereo unspecified) | > 59.2 | > 100 | > 100 | > 100 | > 100 | > 64.7 | > 100 | > 82 | > 96.4 | 77.6 | > 100 | > 100
5 | CC(=O)OCC1OC(n2c(=S)[nH]c(-c3ccccc3)c(C#N)c2=O)C(OC(C)=O)C(OC(C)=O)C1OC(C)=O (stereo unspecified) | > 100 | > 100 | > 100 | > 100 | > 100 | > 100 | > 100 | > 100 | > 100 | > 100 | > 100 | > 100
6 | Cc1cccc(C[C@@]2(SCc3ccccc3)C(C)(C)[C@@H]3CC[C@@]2(C)C3)n1 | 35.5 | 28.8 | 48.1 | 26.8 | 28.7 | 30.2 | 28.5 | 27.3 | 35.7 | 27.8 | 35.5 | 37.2
7 | CN(C)c1ccc(/C(Br)=C2\OC(=O)c3ccccc32)cc1 | > 100 | > 100 | > 100 | > 100 | > 100 | > 100 | > 100 | > 100 | > 100 | > 100 | > 100 | > 100
8 | Cc1ccc(C2=Nc3c(c(C)nn3-c3ccccc3)N=C(C(=O)O)C2)cc1 | > 10 | > 10 | > 10 | > 10 | > 10 | > 10 | > 10 | > 10 | > 10 | > 10 | > 10 | > 10
9 | N#Cc1c2c(c(Nc3ccc(F)cc3)n3c1nc1ccccc13)CCC2 | 3.25 | 5.8 | 3.5 | 13.1 | 11.1 | 5.37 | 11.3 | > 100 | 19 | 40.6 | 25.1 | 7.75
10 | O=c1nc2c(c(-c3cccc(Cl)c3)[nH]1)COC/C2=C\c1cccc(Cl)c1 | > 100 | > 100 | > 100 | > 100 | > 100 | > 100 | > 100 | > 100 | > 100 | > 100 | > 100 | > 100
11 | CN(O)C(=O)Cc1ccc(OCc2cccc(Cl)c2)cc1 | > 100 | > 100 | > 100 | > 100 | > 100 | > 100 | > 100 | > 100 | > 100 | > 100 | > 100 | > 100
12 | O=C1/C(=C/c2ccc([N+](=O)[O-])cc2)CNC/C1=C\c1ccc([N+](=O)[O-])cc1 | 3.18 | 25.3 | 4.67 | 3.06 | 4.78 | 5.93 | 20.2 | > 38 | 21.7 | > 100 | 29.5 | 19.6
13 | CN1C(=O)CN(NC(=O)C2=C(O)c3ccc(Br)cc3S(=O)(=O)N2)C1=S | > 100 | > 100 | > 100 | > 100 | > 100 | > 100 | > 100 | > 100 | > 100 | > 100 | > 100 | > 100
14 | CCC[C@H](C)[C@H]1NC(=O)[C@@H](NC(=O)[C@@H](CC(C)C)N(C)C(=O)C2CCCN2C(=O)[C@H](C)O)[C@@H](C)OC(=O)[C@H](CC(C)C)N(C)C(=O)[C@@H]2CCCN2C(=O)[C@H](CC(C)C)NC(=O)[C@@H](C)C(=O)[C@H](C(C)C)OC(=O)C[C@@H]1O (stereo partly specified) | 0.0157 | 0.0689 | 1.54 | 1.44 | 0.0256 | 0.00309 | 0.00855 | 1.58 | 0.0169 | 0.00468 | 0.0027 | 0.128
15 | CCOC(=O)C1CC(O)C(=O)N1C (stereo unspecified) | > 100 | > 100 | > 100 | > 100 | > 100 | > 100 | > 100 | > 100 | > 100 | > 100 | > 100 | > 100
16 | CCOC(=O)c1cnc2[nH]ccn2c1=O | > 10 | > 10 | > 10 | > 10 | > 10 | > 10 | > 10 | > 10 | > 10 | > 10 | > 10 | > 10
17 | O=C1OC[C@@H]2Cc3c([nH]c4ccccc34)[C@@H](c3ccc(O)cc3)N12 | > 100 | > 74.2 | 97.5 | > 100 | 61.1 | 46.3 | > 83.4 | > 75.3 | > 100 | 67.6 | 69.8 | > 100
18 | O=C1C(Br)=Cc2c(Cl)sc(Cl)c21 | 5.09 | 9.83 | 8.99 | 18.6 | 7.67 | 5.84 | 8.91 | 2.08 | 6.83 | 32.3 | 27.2 | 9.14
19 | O=C1C(C=NCCc2c[nH]c3ccccc23)C(C(F)(F)F)=NN1c1nc2ccccc2s1 (stereo unspecified) | > 100 | 83.5 | > 100 | > 100 | > 100 | 78.6 | > 100 | 60.4 | 97.8 | 77.7 | 43.6 | > 100
20 | C=CC/C(C(=O)OC)=C(/C(=O)OC)N(CCC)CCC | > 100 | > 100 | > 100 | > 100 | > 100 | > 100 | > 100 | > 100 | > 100 | > 100 | > 100 | > 100
21 | c1ccc2c(c1)CCCN1CCc3ccccc3C21 (stereo unspecified) | > 100 | > 100 | > 100 | > 100 | > 100 | > 100 | > 100 | > 100 | > 100 | > 100 | > 100 | > 100
22 | CN1CN(c2ccccc2)C2(CCN(CCCC3(c4cccs4)OCCO3)CC2)C1=O | > 100 | > 100 | > 100 | > 100 | > 100 | > 100 | > 100 | > 100 | > 100 | > 100 | > 100 | > 100
23 | CCOc1ccc(N=C/C=C(\Cl)c2ccc3ccccc3c2)cc1 | 26.7 | 32.7 | 34 | 30.2 | 41.5 | 15.3 | 30.9 | 6.16 | 36 | 42.7 | 31 | 29.9
24 | CCOP(=O)(OCC)/C(F)=C/c1ccccc1 | > 100 | > 100 | > 100 | > 100 | > 100 | > 100 | > 100 | > 100 | > 100 | > 100 | > 100 | > 100
25 | CCOC(=O)C(=O)N1C(C)=C(C(=O)OCC)CC(C(=O)OCC)=C1C | > 100 | > 100 | > 100 | > 100 | > 100 | > 100 | > 100 | > 100 | > 100 | > 100 | > 100 | > 100
26 | NCCCC(N)C(=O)O (stereo unspecified) | > 100 | > 100 | > 100 | > 100 | > 100 | > 100 | > 100 | > 100 | > 100 | > 100 | > 100 | > 100
27 | CC1=CC(=O)N(n2c(C)n[nH]c2=O)C1=O | > 100 | > 100 | > 100 | > 100 | > 100 | > 100 | > 100 | > 100 | > 100 | > 100 | > 100 | > 100
28 | CCN(CC)CCCn1c(=O)c2cccnc2n2c3c(=O)n(C)c(=O)n(C)c3nc12 | > 100 | > 100 | > 100 | > 100 | > 100 | > 100 | > 100 | > 100 | > 100 | > 100 | > 100 | > 100
